Source: ChEMBL document CHEMBL2074173, “Organic anion-transporting polypeptide B (OATP-B) and its functional comparison with three other OATPs of human liver” (Gastroenterology, 2001)
Where a SMILES comes first, the peptide text is derived from it. [ ]: non-standard residue; d: D form.

B1: Solute carrier organic anion transporter family member 1B1 (Homo sapiens) (protein)
chain: MDQNQHLNKTAEAQPSENKKTRYCNGLKMFLAALSLSFIAKTLGAIIMKSSIIHIERRFEISSSLVGFIDGSFEIGNLLVIVFVSYFGSKLHRPKLIGIGCFIMGIGGVLTALPHFFMGYYRYSKETNINSSENSTSTLSTCLINQILSLNRASPEIVGKGCLKESGSYMWIYVFMGNMLRGIGETPIVPLGLSYIDDFAKEGHSSLYLGILNAIAMIGPIIGFTLGSLFSKMYVDIGYVDLSTIRITPTDSRWVGAWWLNFLVSGLFSIISSIPFFFLPQTPNKPQKERKASLSLHVLETNDEKDQTANLTNQGKNITKNVTGFFQSFKSILTNPLYVMFVLLTLLQVSSYIGAFTYVFKYVEQQYGQPSSKANILLGVITIPIFASGMFLGGYIIKKFKLNTVGIAKFSCFTAVMSLSFYLLYFFILCENKSVAGLTMTYDGNNPVTSHRDVPLSYCNSDCNCDESQWEPVCGNNGITYISPCLAGCKSSSGNKKPIVFYNCSCLEVTGLQNRNYSAHLGECPRDDACTRKFYFFVAIQVLNLFFSALGGTSHVMLIVKIVQPELKSLALGFHSMVIRALGGILAPIYFGALIDTTCIKWSTNNCGTRGSCRTYNSTSFSRVYLGLSSMLRVSSLVLYIILIYAMKKKYQEKDINASENGSVMDEANLESLNKNKHFVPSAGADSETHC
B2: Solute carrier organic anion transporter family member 2B1 (Homo sapiens) (protein)
chain: MGPRIGPAGEVPQVPDKETKATMGTENTPGGKASPDPQDVRPSVFHNIKLFVLCHSLLQLAQLMISGYLKSSISTVEKRFGLSSQTSGLLASFNEVGNTALIVFVSYFGSRVHRPRMIGYGAILVALAGLLMTLPHFISEPYRYDNTSPEDMPQDFKASLCLPTTSAPASAPSNGNCSSYTETQHLSVVGIMFVAQTLLGVGGVPIQPFGISYIDDFAHNSNSPLYLGILFAVTMMGPGLAFGLGSLMLRLYVDINQMPEGGISLTIKDPRWVGAWWLGFLIAAGAVALAAIPYFFFPKEMPKEKRELQFRRKVLAVTDSPARKGKDSPSKQSPGESTKKQDGLVQIAPNLTVIQFIKVFPRVLLQTLRHPIFLLVVLSQVCLSSMAAGMATFLPKFLERQFSITASYANLLIGCLSFPSVIVGIVVGGVLVKRLHLGPVGCGALCLLGMLLCLFFSLPLFFIGCSSHQIAGITHQTSAHPGLELSPSCMEACSCPLDGFNPVCDPSTRVEYITPCHAGCSSWVVQDALDNSQVFYTNCSCVVEGNPVLAGSCDSTCSHLVVPFLLLVSLGSALACLTHTPSFMLILRGVKKEDKTLAVGIQFMFLRILAWMPSPVIHGSAIDTTCVHWALSCGRRAVCRYYNNDLLRNRFIGLQFFFKTGSVICFALVLAVLRQQDKEARTKESRSSPAVEQQLLVSGPGKKPEDSRV

How the values were obtained:
[1] = target: T1, Solute carrier organic anion transporter family member 1B3 (OATP1B3, SLCO1B3) (Homo sapiens, UniProt Q9NPD5); assay: (§1) TP_TRANSPORTER: uptake in Xenopus laevis oocytes; type: functional, cell-based, Oocyte; conditions: Xenopus laevis oocytes expressing the transporter
T1 sequence (Q9NPD5 whole entry): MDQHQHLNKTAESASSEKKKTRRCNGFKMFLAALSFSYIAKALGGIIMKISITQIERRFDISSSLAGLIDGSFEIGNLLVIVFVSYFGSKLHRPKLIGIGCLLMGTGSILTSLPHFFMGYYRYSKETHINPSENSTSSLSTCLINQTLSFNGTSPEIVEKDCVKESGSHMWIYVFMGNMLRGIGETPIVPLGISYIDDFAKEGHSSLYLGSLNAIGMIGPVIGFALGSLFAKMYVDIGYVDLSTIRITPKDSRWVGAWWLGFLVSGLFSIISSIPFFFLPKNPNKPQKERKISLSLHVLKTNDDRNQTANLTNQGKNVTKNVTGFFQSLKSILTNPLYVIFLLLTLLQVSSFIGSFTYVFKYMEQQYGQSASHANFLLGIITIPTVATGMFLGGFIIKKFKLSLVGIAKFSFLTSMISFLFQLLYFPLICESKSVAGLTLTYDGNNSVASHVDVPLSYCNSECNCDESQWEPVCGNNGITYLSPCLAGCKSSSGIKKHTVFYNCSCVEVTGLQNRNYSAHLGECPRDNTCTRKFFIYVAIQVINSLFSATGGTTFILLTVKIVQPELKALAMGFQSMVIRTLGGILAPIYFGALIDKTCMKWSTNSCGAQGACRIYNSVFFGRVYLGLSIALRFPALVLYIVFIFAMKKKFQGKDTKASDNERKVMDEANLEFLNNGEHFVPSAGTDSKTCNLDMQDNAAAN

[2] = target: T2, Solute carrier organic anion transporter family member 1B3 (Homo sapiens, UniProt Q9NPD5); assay: as §1; type: functional, cell-based, Oocyte; conditions: oocyte
T2 sequence (Q9NPD5 whole entry): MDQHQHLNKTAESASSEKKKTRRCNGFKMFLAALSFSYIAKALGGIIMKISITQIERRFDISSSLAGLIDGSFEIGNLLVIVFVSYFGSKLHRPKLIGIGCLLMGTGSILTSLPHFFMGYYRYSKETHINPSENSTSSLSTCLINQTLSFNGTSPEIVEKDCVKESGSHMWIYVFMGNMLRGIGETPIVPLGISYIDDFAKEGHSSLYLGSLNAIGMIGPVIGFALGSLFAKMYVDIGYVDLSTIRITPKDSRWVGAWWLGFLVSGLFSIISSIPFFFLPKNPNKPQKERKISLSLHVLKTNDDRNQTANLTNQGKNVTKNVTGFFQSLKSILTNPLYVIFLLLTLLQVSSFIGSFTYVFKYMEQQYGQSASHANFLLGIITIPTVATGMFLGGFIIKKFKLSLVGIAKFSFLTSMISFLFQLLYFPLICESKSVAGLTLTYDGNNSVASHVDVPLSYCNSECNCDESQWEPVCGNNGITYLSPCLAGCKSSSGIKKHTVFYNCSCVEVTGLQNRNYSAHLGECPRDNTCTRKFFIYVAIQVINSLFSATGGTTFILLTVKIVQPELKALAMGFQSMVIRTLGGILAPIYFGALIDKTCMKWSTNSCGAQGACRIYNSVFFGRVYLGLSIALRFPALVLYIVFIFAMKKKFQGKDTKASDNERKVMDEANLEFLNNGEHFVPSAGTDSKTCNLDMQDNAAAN

[3] = target: T3, Solute carrier organic anion transporter family member 1B1 (Homo sapiens, UniProt Q9Y6L6); assay: as §1; type: functional, cell-based; conditions: oocyte
T3 sequence (Q9Y6L6 whole entry): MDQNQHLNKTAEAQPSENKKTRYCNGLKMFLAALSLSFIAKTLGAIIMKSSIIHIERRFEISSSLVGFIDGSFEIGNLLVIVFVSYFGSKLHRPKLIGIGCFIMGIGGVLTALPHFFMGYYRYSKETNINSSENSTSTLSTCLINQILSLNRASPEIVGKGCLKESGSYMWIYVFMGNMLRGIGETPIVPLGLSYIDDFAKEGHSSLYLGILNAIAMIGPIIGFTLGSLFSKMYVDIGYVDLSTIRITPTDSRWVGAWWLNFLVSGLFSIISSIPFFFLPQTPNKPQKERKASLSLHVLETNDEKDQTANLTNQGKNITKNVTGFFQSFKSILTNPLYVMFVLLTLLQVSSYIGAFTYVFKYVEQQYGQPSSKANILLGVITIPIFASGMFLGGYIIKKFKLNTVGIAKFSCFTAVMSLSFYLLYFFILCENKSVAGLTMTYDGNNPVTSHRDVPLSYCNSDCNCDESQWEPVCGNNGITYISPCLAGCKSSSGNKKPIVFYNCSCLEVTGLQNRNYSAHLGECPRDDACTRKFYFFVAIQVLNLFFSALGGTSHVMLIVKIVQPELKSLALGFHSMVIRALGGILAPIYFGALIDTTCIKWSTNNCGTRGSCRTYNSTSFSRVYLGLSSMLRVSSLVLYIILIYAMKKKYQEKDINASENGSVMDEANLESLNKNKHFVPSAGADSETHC

[4] = target: T4, Solute carrier organic anion transporter family member 1A2 (Homo sapiens, UniProt P46721); assay: as §1; type: functional, cell-based; conditions: oocyte
T4 sequence (P46721 whole entry): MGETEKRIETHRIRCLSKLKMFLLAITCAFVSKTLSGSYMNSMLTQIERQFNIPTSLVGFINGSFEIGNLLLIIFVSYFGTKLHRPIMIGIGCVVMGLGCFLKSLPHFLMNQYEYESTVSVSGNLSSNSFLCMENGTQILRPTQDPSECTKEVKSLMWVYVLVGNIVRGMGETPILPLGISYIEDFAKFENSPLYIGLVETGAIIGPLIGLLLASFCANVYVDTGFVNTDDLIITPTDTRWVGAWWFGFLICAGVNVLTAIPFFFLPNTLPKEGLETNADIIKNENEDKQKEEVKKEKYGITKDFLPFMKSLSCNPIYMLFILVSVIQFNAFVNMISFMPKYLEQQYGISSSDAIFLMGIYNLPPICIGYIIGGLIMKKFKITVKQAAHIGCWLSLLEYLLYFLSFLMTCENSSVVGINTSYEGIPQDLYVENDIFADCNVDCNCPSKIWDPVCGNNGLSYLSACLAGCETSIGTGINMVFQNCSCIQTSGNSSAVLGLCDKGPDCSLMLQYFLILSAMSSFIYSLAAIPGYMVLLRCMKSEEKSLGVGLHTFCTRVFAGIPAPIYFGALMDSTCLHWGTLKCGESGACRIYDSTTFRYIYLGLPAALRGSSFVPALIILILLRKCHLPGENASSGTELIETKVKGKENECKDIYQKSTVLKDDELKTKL

[5] = target: T5, Solute carrier organic anion transporter family member 2B1 (Homo sapiens, UniProt O94956); assay: as §1; type: functional, cell-based; conditions: oocyte
T5 sequence (O94956 whole entry): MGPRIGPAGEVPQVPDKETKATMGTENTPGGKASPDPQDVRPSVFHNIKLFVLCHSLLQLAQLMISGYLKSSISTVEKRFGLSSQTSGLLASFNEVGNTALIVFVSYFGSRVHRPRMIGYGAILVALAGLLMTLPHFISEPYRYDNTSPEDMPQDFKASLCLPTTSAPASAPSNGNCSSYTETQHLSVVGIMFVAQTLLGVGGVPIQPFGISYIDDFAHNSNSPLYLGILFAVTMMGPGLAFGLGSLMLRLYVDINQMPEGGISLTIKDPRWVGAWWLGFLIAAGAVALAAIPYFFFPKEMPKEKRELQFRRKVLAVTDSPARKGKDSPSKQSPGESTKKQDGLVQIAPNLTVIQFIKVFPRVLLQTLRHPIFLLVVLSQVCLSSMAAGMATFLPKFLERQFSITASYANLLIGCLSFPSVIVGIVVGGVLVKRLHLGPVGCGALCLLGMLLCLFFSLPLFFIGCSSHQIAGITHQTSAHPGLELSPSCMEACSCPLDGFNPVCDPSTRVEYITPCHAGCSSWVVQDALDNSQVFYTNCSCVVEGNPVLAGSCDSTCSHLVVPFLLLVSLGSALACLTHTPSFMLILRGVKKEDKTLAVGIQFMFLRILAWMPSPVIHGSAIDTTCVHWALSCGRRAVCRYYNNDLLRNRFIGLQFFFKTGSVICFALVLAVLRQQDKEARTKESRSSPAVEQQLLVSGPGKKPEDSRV

[6] = substrate: O=C1OC(c2ccc(O)c(S(=O)(=O)O)c2)(c2ccc(O)c(S(=O)(=O)O)c2)c2c(Br)c(Br)c(Br)c(Br)c21; assay: as §1; type: functional, cell-based, Oocyte

| Molecule | Activity [2] | Activity [4] | other results |
| --- | --- | --- | --- |
| O=C1OC(c2ccc(O)c(S(=O)(=O)O)c2)(c2ccc(O)c(S(=O)(=O)O)c2)c2c(Br)c(Br)c(Br)c(Br)c21 [SULFOBROMOPHTHALEIN SODIUM] | – | – | Km [1]: 0.4 µM |
| CC(C)[C@H](NC(=O)[C@H](CCC(=O)O)NC(=O)[C@H](Cc1ccccc1)NC(=O)[C@@H](C)NC(=O)[C@@H](N)Cc1ccc(O)cc1)C(=O)N[C@H](C(=O)NCC(N)=O)C(C)C [DELTORPHIN II] | substrate [+] | – | – |
| N[C@@H](Cc1cc(I)c(Oc2ccc(O)c(I)c2)c(I)c1)C(=O)O [LIOTHYRONINE] | substrate [+] | – | – |
| CC1(C)SSC(C)(C)[C@@H](NC(=O)[C@@H](N)Cc2ccc(O)cc2)C(=O)NCC(=O)N[C@@H](Cc2ccccc2)C(=O)N[C@H]1C(=O)O | substrate [+] | – | Activity [3]: substrate [+] |
| C[C@@H]1O[C@@H](O[C@H]2C[C@@H](O)[C@]3(CO)[C@H]4[C@H](O)C[C@]5(C)[C@@H](C6=CC(=O)OC6)CC[C@]5(O)[C@@H]4CC[C@]3(O)C2)[C@H](O)[C@H](O)[C@H]1O [OUABAIN] | substrate [+] | substrate [+] | – |
| C[C@H](CCC(=O)NCC(=O)O)[C@H]1CC[C@H]2[C@@H]3[C@H](O)C[C@@H]4C[C@H](O)CC[C@]4(C)[C@H]3C[C@H](O)[C@]12C [GLYCOCHOLIC ACID] | substrate [+] | substrate [+] | Activity [3]: substrate [+] |
| C[C@]12CC[C@H](OS(=O)(=O)O)CC1=CC[C@@H]1[C@@H]2CC[C@]2(C)C(=O)CC[C@@H]12 [PRASTERONE SULFURIC ACID] | substrate [+] | – | Activity [5]: substrate [+] |
| C[C@]12CC[C@@H]3c4ccc(O)cc4CC[C@H]3[C@@H]1CC[C@@H]2O[C@@H]1O[C@H](C(=O)O)[C@@H](O)[C@H](O)[C@H]1O [ESTRADIOL 17B GLUCURONIDE] | substrate [+] | substrate [+] | – |
| N[C@@H](Cc1cc(I)c(Oc2cc(I)c(O)c(I)c2)c(I)c1)C(=O)O [LEVOTHYROXINE] | substrate [+] | – | – |
| CC(C)C[C@@H]1NC(=O)[C@@H](C(C)C)NC(=O)[C@@H]2CCCN2C(=O)[C@@H](CC(=O)O)NC(=O)[C@@H](Cc2c[nH]c3ccccc23)NC1=O [BQ-123] (cyclo(L[dW][dD]P[dV])) | substrate [+] | substrate [+] | Activity [3]: substrate [+] |
| C[C@]12CC[C@@H]3c4ccc(OS(=O)(=O)O)cc4CC[C@H]3[C@@H]1CCC2=O [ESTRONE SULFURIC ACID] | substrate [+] | – | Activity [5]: substrate [+] |
| CCCCC/C=C\C\C=C/C=C/C=C/[C@@H](SC[C@@H](NC(=O)CC[C@H](N)C(=O)O)C(=O)NCC(=O)O)[C@@H](O)CCCC(=O)O [LEUKOTRIEN C4] | substrate [+] | – | – |
| CCCCC[C@H](O)/C=C/[C@H]1[C@H](O)CC(=O)[C@@H]1C/C=C\CCCC(=O)O [DINOPROSTONE] | – | substrate [+] | – |
| B1 | – | – | Km [6]: 0.3 µM |
| B2 | – | – | Km [6]: 0.7 µM |
